Data: patent publication US5760072A, “Paclitaxel prodrugs, method for preparation as well as their use in selective chemotherapy” (Pharmachemie B.V., priority 1995, dated 1998)
Structures can show the parent of a compound that is named as a salt.

Columns and labels:
Solubility in water = assay type: physicochemical; conditions: for solubility in water compared with parent drug paclitaxel: in words; for solubility: water, read-out: Concentrations reached in water
Experimental: Concentrations of 10 mM in water and higher were reached whereas the solubility of paclitaxel is lower as […] in water (K. C. Nicolaou et al., Nature, 1993, 364, 464-466).

OVCAR-3 cells [1] = assay: In vitro cytotoxicity (anti-proliferative effect) with excess human β-glucuronidase, sulforhodamine B protein dye stain; assay type: cell-based; conditions: OVCAR-3, with β-glucuronidase
Experimental: (§1) The anti-proliferative effects of paclitaxel, and the prodrugs 1, 2a and 2b on OVCAR-3 cells were determined by measuring the cell growth with a protein dye stain (H. J. Haisma et al. Cell Biophysics 1994, 24/25, 185-192). Cells were seeded in 96-well tissue culture plates (5000 cells/well) and 24 h later (pro)drugs 1, 2a, 2b or 3 were added with or without excess human β-glucuronidase. After 72 hours the cells were fixed with 25% trichloroacetic acid, stained with 0.4% sulforhodamine B, washed with 1% acetic acid and air-dried. The bound dye was then solubilized with 10 mM Tris and the absorbance read at 492 nm. The antiproliferative effects were expressed as IC50 values, which are the (pro)drug concentrations that gave 50% growth inhibition when compared to control cell growth.

[2] = Stability assay in PBS buffer pH 6.8, 37° C., HPLC; assay type: physicochemical; conditions: for ratio of prodrug/paclitaxel: PBS pH=6.8, 37° C., HPLC peak areas; for stability in PBS buffer: in words, PBS pH=6.8
Experimental: The prodrugs in examples 1 and 2b were all stable in PBS buffer (PBS buffer=NaCl (8 g/L), KCl (0.2 g/L), Na2 HPO4 (1.15 g/L), KH2 PO4 (0.2 g/L), pH=6.8, see example 4 and 5).
To 3.0 mL PBS buffer, pH=6.8, was added 0.37 mg of prodrug 2b (0.30 μmol). The mixture was placed in a water bath of 37° C. […] The ratios are based on peak areas.
In 1.1 mL PBS buffer, pH=6.8, was dissolved 0.13 mg of prodrug 2a (0.11 μmol) and placed in a water bath of 37° C. […] The ratios are based on peak areas.

OVCAR-3 cells [3] = assay: In vitro cytotoxicity (anti-proliferative effect) without β-glucuronidase, sulforhodamine B protein dye stain; assay type: cell-based; conditions: for ratio IC50 prodrug/IC50 paclitaxel: OVCAR-3, without β-glucuronidase; for cytotoxicity compared with parent drug paclitaxel: in words
Experimental: as §1

human β-glucuronidase = biological target: T1, human β-glucuronidase (Homo sapiens, UniProt P08236); assay: Enzyme catalyzed hydrolysis of prodrug by human β-glucuronidase, HPLC; assay type: biochemical; conditions: for ratio prodrug/paclitaxel: 37° C., pH=6.8, HPLC peak areas; for intermediates (spacer attached to paclitaxel, compounds 5 and 7b) during enzyme catalyzed hydrolysis / enzymatic hydrolysis rate / paclitaxel found in experiment without human β-glucuronidase: in words; for enzymatic hydrolysis rate: appropriate enzyme; for paclitaxel found in experiment without human β-glucuronidase: no enzyme, PBS pH=6.8, 37° C., up to 180 min; for half life of hydrolysis by β-glucuronidase: prodrug 100 μM, enzyme 10 μg mL^-1
T1 construct: lysosomal homotetramer
T1 sequence (P08236 23-651): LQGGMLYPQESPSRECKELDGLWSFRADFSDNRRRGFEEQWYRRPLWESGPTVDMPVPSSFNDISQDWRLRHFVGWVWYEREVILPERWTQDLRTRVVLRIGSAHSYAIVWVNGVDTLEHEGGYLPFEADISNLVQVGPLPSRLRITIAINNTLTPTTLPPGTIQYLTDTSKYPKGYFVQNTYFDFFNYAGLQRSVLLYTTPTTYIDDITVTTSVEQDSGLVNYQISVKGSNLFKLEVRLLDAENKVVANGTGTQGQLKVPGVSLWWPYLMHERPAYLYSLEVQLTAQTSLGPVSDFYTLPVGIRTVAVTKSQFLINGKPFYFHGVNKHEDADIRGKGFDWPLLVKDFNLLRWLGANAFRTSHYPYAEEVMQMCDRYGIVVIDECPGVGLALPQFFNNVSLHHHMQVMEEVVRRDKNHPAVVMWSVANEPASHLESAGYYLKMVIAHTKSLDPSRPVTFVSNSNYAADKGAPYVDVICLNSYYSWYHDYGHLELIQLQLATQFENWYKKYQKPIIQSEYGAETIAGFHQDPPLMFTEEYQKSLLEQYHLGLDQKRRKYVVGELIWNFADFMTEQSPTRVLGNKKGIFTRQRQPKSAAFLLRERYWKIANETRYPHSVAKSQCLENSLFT
Experimental: To 140 μL PBS buffer (pH=6.8) was added 20 μL of a 1 mM solution of prodrug 1 in PBS buffer (pH=6.8) and 20 μL of 1% bovine serum albumin also in PBS buffer (pH=6.8). After incubation of the mixture for 10 min. at 37° C. 20 μL of a solution of 0.1 mg mL^-1 human β-glucuronidase (H. J. Haisma, Hybridoma, in press) was added. Directly after the addition of the enzyme to the reaction mixture an aliquot of 10 μL was taken and diluted with 90 μL cold acetonitrile (-20° C.) in order to stop the enzyme reaction. The reaction mixture was incubated for 3 hr at 37° C. and samples were taken at 15, 30, 45, 60, 90, 120 and 180 min. All samples were quenched by dilution with cold acetonitrile (-20° C.). […] In the later experiment also samples of 10 μL were taken at 0, 15, 30, 45, 60, 90, 120 and 180 min and were also diluted with cold acetonitrile (-20° C.). The samples of both experiments were analyzed by HPLC (C^18 reverse phase column, eluent: gradient of 10% acetonitrile in water to 90% acetonitrile in water, detection at 226 nm). The ratio of prodrug 1 to paclitaxel as shown in table 1 is determined by measuring the peak areas of the appropriate signals. […] All experiments were carried out in duplo.
20 μL of 1 mM solution of prodrug 2b in PBS buffer (pH=6.8) and 20 μL 1% bovine serum albumin also in PBS buffer (pH=6.8) was added to 140 μL PBS buffer (pH=6.8). Subsequently, the mixture was incubated for 10 min. at 37° C. whereafter 20 μL of a solution of 0.1 mg mL^-1 human β-glucuronidase (H. J. Haisma, Hybridoma, in press) was added and the reaction mixture was incubated at 37° C. Samples were taken and quenched at 0, 15, 30, 45, 60, 90, 120 and 180 min as described above for the enzyme assay of prodrug 1. In order to determine that the hydrolysis was caused by β-glucuronidase, another experiment was carried out without addition of β-glucuronidase as described above in example 7. The samples were analyzed as described for example 7 (vide supra). The ratios presented in table 2, are based on peak areas of the appropriate signals. […] All experiment were carried out in duplo.

[4] = K. C. Nicolaou et al., Nature, 1993, 364, 464-466; cited from earlier work

Structure (SMILES)	solubility in water compared with parent drug paclitaxel (Solubility in water)	solubility (Solubility in water) [mM]	ratio IC50 activated prodrug with β-glucronidase/IC50 paclitaxel (OVCAR-3 cells [1])	ratio of prodrug/paclitaxel ([2]; 48 hr)	stability in PBS buffer [2]	ratio IC50 prodrug/IC50 paclitaxel (OVCAR-3 cells [3])	cytotoxicity compared with parent drug paclitaxel (OVCAR-3 cells [3])	ratio prodrug/paclitaxel (human β-glucuronidase; 0 min)	ratio prodrug/paclitaxel (human β-glucuronidase; 15 min)	ratio prodrug/paclitaxel (human β-glucuronidase; 30 min)	ratio prodrug/paclitaxel (human β-glucuronidase; 45 min)	ratio prodrug/paclitaxel (human β-glucuronidase; 60 min)	ratio prodrug/paclitaxel (human β-glucuronidase; 90 min)	ratio prodrug/paclitaxel (human β-glucuronidase; 120 min)	ratio prodrug/paclitaxel (human β-glucuronidase; 180 min)	intermediates (spacer attached to paclitaxel, compounds 5 and 7b) during enzyme catalyzed hydrolysis (human β-glucuronidase)	enzymatic hydrolysis rate (human β-glucuronidase)	paclitaxel found in experiment without human β-glucuronidase (human β-glucuronidase)	half life of hydrolysis by β-glucuronidase (human β-glucuronidase)	further results
CC(=O)O[C@H]1C(=O)[C@@]2(C)[C@H]([C@H](OC(=O)c3ccccc3)[C@]3(O)C[C@H](OC(=O)[C@H](OC(=O)CC(C)(C)CNC(=O)O[C@@H]4O[C@H](C(=O)O)[C@@H](O)[C@H](O)[C@H]4O)[C@@H](NC(=O)c4ccccc4)c4ccccc4)C(C)=C1C3(C)C)[C@]1(OC(C)=O)CO[C@@H]1C[C@@H]2O [Prodrug 1, N-[paclitaxel-2'-O-3,3-dimethyl butanoate]-O-[β-glucuronyl] carbamate sodium salt]	far more better soluble in water as the parent drug paclitaxel	≥ 10	3	92/8	stable	90	less cytotoxic as the parent drug	99/1	95/5	93/7	87/13	78/22	61/39	43/57	33/67	no intermediates	quite fast hydrolyzing rates	no paclitaxel was found	about 2 hr	–
CC(=O)O[C@H]1C(=O)[C@@]2(C)[C@H]([C@H](OC(=O)c3ccccc3)[C@]3(O)C[C@H](OC(=O)[C@H](OC(=O)Cc4ccccc4NC(=O)O[C@@H]4O[C@H](C(=O)O)[C@@H](O)[C@H](O)[C@H]4O)[C@@H](NC(=O)c4ccccc4)c4ccccc4)C(C)=C1C3(C)C)[C@]1(OC(C)=O)CO[C@@H]1C[C@@H]2O [Prodrug 2a, N-[paclitaxel-2'-O-(2-amino) phenylacetate]-O-[β-glucuronyl] carbamate sodium salt]	far more better soluble in water as the parent drug paclitaxel	≥ 10	1	–	not stable	1	about as cytotoxic as paclitaxel	–	–	–	–	–	–	–	–	–	–	–	–	ratio of prodrug/paclitaxel ([2]; 3 hr): 55/45; ratio of prodrug/paclitaxel ([2]; 22 hr): 1/99; half-life ([2]; pbs buffer, pH 6.8, read-out: half time of decomposition to paclitaxel (converted)): 3 h
CC(=O)O[C@H]1C(=O)[C@@]2(C)[C@H]([C@H](OC(=O)c3ccccc3)[C@]3(O)C[C@H](OC(=O)[C@H](OC(=O)CCc4ccccc4NC(=O)O[C@@H]4O[C@H](C(=O)O)[C@@H](O)[C@H](O)[C@H]4O)[C@@H](NC(=O)c4ccccc4)c4ccccc4)C(C)=C1C3(C)C)[C@]1(OC(C)=O)CO[C@@H]1C[C@@H]2O [Prodrug 2b, N-[paclitaxel-2'-O-(2-amino)phenylpropionate]-O-[β-glucuronyl] carbamate sodium salt]	far more better soluble in water as the parent drug paclitaxel	≥ 10	5	92/8	stable	122	less cytotoxic as the parent drug	99/1	87/13	74/26	55/45	41/59	24/76	20/80	15/85	no intermediates	quite fast hydrolyzing rates	no paclitaxel was found	about 45 min	ratio of prodrug/paclitaxel ([2]; 66 hr): 89/11
CC(=O)O[C@H]1C(=O)[C@@]2(C)[C@H]([C@H](OC(=O)c3ccccc3)[C@]3(O)C[C@H](OC(=O)[C@H](O)[C@@H](NC(=O)c4ccccc4)c4ccccc4)C(C)=C1C3(C)C)[C@]1(OC(C)=O)CO[C@@H]1C[C@@H]2O [paclitaxel]	–	–	–	–	–	–	–	–	–	–	–	–	–	–	–	–	–	–	–	solubility in water [4]: < 5 nM
